According to patent US20160030562A1, “METHODS TO ENHANCE CANCER TREATMENT” (INTERNATIONAL BUSINESS MACHINES CORPORATION, priority 2011, published 2016):

Test system: breast cancer
Assay: Treatment of Patient A (Stage II breast cancer)
Type: in vivo, human
Details: tamoxifen alone, 20 mg a day, year 3 of 5-year treatment
Protocol: Patient A has Stage II breast cancer. Patient A is in year 3 of a 5-year treatment with tamoxifen (tamoxifen prescribed at 20 mg a day for 5 years) but no regression in patient's breast cancer is apparent. Additional treatment is desired.
Cholesterol deprivation therapy is prescribed for Patient A. Patient A prefers a vegan diet, so Patient A's diet includes no meat or animal products, no saturated fats, and monounsaturated and polyunsaturated fats in moderation. Vegetable proteins, fruits, vegetables, and grains are primary food sources. A multivitamin with vitamin D and calcium is prescribed. […] CDT is prescribed for 8 months.
Patient A is treated with anti-CD cancer cell antibodies. Initial antibody loading dose of 1.3 g antibody preparation is administered as a two hour IV infusion, followed by weekly doses of about 0.6 g administered as a 30 minute infusion of the antibody preparation. Antibody and CDT treatments continue for 6 months.
As a result of combination treatment with CDT diet, statins, anti-CD cancer cell antibodies, and tamoxifen, Patient A's breast cancer regresses.

## CC/C(=C(\c1ccccc1)c1ccc(OCCN(C)C)cc1)c1ccccc1 [tamoxifen]
  regression of breast cancer: no regression
